Experimental data from patent US20050282818A1, “Ubiquitin ligase inhibitors” (Rigel Pharmaceuticals, Inc., priority 2004, published 2005).

Assays:
TRAF6/Uev1A/Ubc13 = biological target: T1, TRAF6/Uev1A/Ubc13 (Homo sapiens, UniProt Q9Y4K3); test: TRAF6/Uev1A/Ubc13 plate-based ubiquitin ligase assay; type: biochemical
T1 sequence (Q9Y4K3 1-522): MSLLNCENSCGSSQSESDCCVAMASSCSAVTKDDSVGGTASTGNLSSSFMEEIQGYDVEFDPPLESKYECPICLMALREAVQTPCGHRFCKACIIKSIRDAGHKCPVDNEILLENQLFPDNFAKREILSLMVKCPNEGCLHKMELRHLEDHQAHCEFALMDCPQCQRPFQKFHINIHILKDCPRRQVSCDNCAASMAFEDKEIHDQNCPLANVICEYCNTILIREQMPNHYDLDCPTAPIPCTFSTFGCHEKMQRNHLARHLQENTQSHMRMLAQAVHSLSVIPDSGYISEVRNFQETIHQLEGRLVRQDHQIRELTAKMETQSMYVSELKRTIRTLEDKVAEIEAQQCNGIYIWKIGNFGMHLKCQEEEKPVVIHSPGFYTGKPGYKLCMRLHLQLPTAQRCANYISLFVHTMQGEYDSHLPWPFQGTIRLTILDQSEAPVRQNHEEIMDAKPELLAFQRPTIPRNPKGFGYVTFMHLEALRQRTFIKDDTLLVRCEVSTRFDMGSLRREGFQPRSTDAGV
In short: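 Ligase activity was read as luminescence from anti-Flag/HRP detection of Flag-ubiquitin bound to casein-blocked Ni-plates alongside His-ubiquitin after a 1 h room-temperature reaction. Buffer: 62.5 mM Tris pH 7.5, 6.25 mM MgCl2, 1.0 mM DTT, 2 μM ATP; E1, Uev1a/Ubc13 and TRAF6 added last to start. IC50s derived across compound concentrations.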

ROC1/CUL1 = biological target: T2, ROC1/CUL1 (Homo sapiens, UniProt P62877+Q13616); test: ROC1/CUL1 ubiquitin ligase assay (SCF assay); type: biochemical
T2 construct: made in house
T2 sequence (P62877 whole entry): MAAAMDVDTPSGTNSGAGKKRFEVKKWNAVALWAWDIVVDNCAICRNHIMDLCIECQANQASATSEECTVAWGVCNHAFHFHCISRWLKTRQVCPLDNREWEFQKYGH
T2 sequence (Q13616 whole entry): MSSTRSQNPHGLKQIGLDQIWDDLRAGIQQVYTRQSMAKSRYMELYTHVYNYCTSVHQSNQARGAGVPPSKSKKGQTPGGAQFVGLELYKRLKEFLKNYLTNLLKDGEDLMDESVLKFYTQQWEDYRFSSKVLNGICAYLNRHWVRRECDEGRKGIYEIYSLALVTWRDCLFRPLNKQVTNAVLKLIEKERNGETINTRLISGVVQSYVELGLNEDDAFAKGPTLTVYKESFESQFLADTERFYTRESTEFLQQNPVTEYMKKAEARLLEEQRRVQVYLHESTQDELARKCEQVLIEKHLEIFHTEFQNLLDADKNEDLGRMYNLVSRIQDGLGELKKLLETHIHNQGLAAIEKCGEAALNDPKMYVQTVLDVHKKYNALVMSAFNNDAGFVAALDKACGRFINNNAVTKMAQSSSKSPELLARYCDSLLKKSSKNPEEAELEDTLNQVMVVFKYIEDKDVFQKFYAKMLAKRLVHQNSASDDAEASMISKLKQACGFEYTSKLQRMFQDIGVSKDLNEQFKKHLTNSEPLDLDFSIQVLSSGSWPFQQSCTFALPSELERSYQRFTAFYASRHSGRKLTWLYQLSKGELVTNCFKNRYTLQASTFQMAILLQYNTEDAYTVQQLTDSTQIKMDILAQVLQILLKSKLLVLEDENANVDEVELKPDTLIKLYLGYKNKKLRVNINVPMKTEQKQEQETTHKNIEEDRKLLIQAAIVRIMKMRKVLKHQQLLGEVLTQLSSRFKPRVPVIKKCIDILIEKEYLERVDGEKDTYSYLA
Experimental: Inhibition of ubiquitin ligase activity of E1+E2+E3 was measured using the protocol as described in WO 01/75145 with E3 as the ROC1/CUL1, ROC1/CUL2, or ROC2/CUL5 complex.
The wells of nickel-substrate 96-well plates (Pierce Chemical) are blocked with 100 μl of 1 casein/phosphate buffered saline (PBS) for 1 hour at room temperature, then washed with 200 μl of PBST (0.1% Tween-20 in PBS) 3 times. To each well is added the following Flag-ubiquitin (see above) reaction solution: 62.5 mM Tris pH 7.5, 6.25 mm MgCl2, 0.75 mM DTT, 2.5 mM ATP, 2.5 mM NaF1, 2.5 nM Okadaic acid, 100 ng Flag-ubiquitin (made as described above).
The buffer solution is brought to a final volume of 80 μl with Milipore-filtered water, followed by the addition of 10 μl DMSO.
To the above solution is then added 10 μl of ubiquitination enzymes in 20 mM Tris buffer, pH 7.5, and 5% glycerol. E2-Ubch5c and E3-His ROC1/Cul1, ROC1/CUL2, and ROC2/CUL5 are made as described in WO 01/75145. E1 is obtained commercially (Affiniti Research Products, Exeter, U. K.). The following amounts of each enzyme are used for these assays: 5 ng/well of E1; […] E2; and 100 ng/well His-E3. Varying amounts of compounds according to the invention are added and the reaction allowed to proceed at room temperature for 1 hour.
Following the ubiquitination reaction, the wells are washed with 200 μl of PBST 3 times. For measurement of the enzyme-bound ubiquitin, 100 gel of Mouse anti-Flag (1:10,000) and anti-Mouse Ig-HRP (1:15, 000) in PBST are added to each well and allowed to incubate at room temperature for 1 hour. The wells are then washed with 200 μl of PBST 3 times, followed by the addition of 100 μl of luminol substrate (1/5 dilution). Luminescence for each well is then measured using a fluorimeter.
Table 2 below illustrates the inhibitory activity of the compounds of the invention determined by the TRAF6/Uev1A/Ubc13 assay as well as in the ICAM, APC and the ROC1/CUL1 Ubiquitin Ligase Assay (SCF Assay). The IC50 values were determined using a various concentrations of the compounds.

A549 cells = test: Cell proliferation PAD assay, A549; type: cell-based; settings: Homo sapiens, 3pt, 48 hours, read-out: A549 3pt
In short: (§1)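 Proliferation was scored by DAPI imaging of fixed cells, counting live, apoptotic and dead cells, after 48 h compound exposure at 37 °C, 5% CO2. Compound, dosed in duplicate 24 h post-plating (2,000 cells/well), came from 6.3-fold dilutions of a 10 mM stock diluted 500-fold.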

H1299 cells = test: Cell proliferation PAD assay, H1299; type: cell-based; settings: Homo sapiens, NCI-H1299, 3pt, 48 hours, read-out: H1299 3pt
In short: as §1

[1] = tested on: ICAM-1 expression in A549 cells; test: ICAM assay (IL-1 induced ICAM-1/CD54 expression in A549 cells); type: cell-based, human; settings: Homo sapiens, A549, ICAM assay
In short: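 Luminescent immunostaining (anti-CD54, then anti-mouse IgG, 1 h) quantifies ICAM-1 on A549 cells induced 4 h at 37° C by IL-1 (4 μl of 25 ng/ml added). Compound is added 1 h before the cytokine to cells plated overnight at 10,000 per well.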

APC11/APC2 = APC11/APC2 (Homo sapiens, UniProt Q9NYG5+Q9UJX6); test: APC-11/APC-2 ligase assay (APC auto ubiquitination); type: biochemical; settings: APC assay
Sequence of APC11/APC2 (Q9NYG5 whole entry): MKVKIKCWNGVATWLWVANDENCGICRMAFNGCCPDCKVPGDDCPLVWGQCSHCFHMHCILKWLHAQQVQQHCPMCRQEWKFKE
Sequence of APC11/APC2 (Q9UJX6 whole entry): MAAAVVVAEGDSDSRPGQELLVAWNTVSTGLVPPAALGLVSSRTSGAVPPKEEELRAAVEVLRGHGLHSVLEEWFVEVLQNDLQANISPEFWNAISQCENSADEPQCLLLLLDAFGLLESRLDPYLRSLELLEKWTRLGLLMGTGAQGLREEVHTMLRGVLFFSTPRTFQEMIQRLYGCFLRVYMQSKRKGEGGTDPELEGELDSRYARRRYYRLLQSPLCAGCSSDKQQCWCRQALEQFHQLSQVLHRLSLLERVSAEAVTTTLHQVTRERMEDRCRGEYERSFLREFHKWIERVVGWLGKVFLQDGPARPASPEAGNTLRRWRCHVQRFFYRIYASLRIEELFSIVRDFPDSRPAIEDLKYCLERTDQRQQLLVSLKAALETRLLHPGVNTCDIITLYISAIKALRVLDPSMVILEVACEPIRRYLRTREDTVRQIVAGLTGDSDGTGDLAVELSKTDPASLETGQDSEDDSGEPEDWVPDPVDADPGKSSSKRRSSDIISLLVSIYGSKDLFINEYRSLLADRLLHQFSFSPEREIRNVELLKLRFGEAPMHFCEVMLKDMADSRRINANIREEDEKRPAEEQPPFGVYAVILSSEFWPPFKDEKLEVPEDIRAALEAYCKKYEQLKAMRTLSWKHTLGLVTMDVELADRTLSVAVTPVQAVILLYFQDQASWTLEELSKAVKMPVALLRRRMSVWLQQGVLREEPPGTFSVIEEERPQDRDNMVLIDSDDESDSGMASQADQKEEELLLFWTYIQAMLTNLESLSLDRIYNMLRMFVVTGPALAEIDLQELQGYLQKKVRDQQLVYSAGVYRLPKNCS
In short: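 His-tagged APC was captured on nickel plates with human E1 (5 ng/well), UbcH5c (20 ng/well), APC (100 ng/well) and Flag-ubiquitin (100 ng/well) in a Tris pH 7.6 reaction buffer containing 2.5 mM ATP, for 1 hour at room temperature. Read-out was anti-Flag/HRP chemiluminescence. IC50 was set against a DMSO control, typically from 6 or 8 concentrations.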

Compound	IC50 (TRAF6/Uev1A/Ubc13) [µM]	IC50 (ROC1/CUL1) [µM]	IC50 (A549 cells) [µM]	IC50 (H1299 cells) [µM]	IC50 [1] [µM]	IC50 (APC11/APC2) [µM]
CC(=O)OCCCNc1cc(Sc2nnc(C)s2)c2nonc2c1[N+](=O)[O-] [compound 133, 3-({7-[(5-methyl-1,3,4-thiadiazol-2-yl)thio]-4-nitro-2,1,3-benzoxadiazol-5-yl}amino)propyl acetate]	≥ 20	≥ 20	–	–	–	–
CC(=O)OCCCNc1cc(SCc2ccco2)c2nonc2c1[N+](=O)[O-] [compound 136, 3-({7-[(2-furylmethyl)thio]-4-nitro-2,1,3-benzoxadiazol-5-yl}amino)propyl acetate]	≥ 20	≥ 20	–	–	–	–
CC1CN(S(=O)(=O)c2c(Sc3cccc4cccnc34)ccc3nonc23)CC(C)O1 (stereo not drawn) [compound 216, 8-({4-[(2,6-dimethylmorpholin-4-yl)sulfonyl]-2,1,3-benzoxadiazol-5-yl}thio)quinoline]	1 to 20	≥ 20	–	–	–	–
O=S(=O)(Nc1ccc(F)c(F)c1)c1ccc(Nc2ccc(F)c(F)c2)c2nonc12 [compound 264, N-(3,4-difluorophenyl)-7-[(3,4-difluorophenyl)amino]-2,1,3-benzoxadiazole-4-sulfonamide]	≥ 20	≥ 20	–	–	–	–
CN1CCN(S(=O)(=O)c2ccc(Sc3ccc(O)cc3)c3nonc23)CC1 [compound 266, 4-({7-[(4-methylpiperazin-1-yl)sulfonyl]-2,1,3-benzoxadiazol-4-yl}thio)phenol]	≥ 20	≥ 20	–	–	–	–
O=[N+]([O-])c1ccc(N2CCC(Oc3ccccn3)CC2)c2nonc12 [compound 287, 4-nitro-7-[4-(pyridin-2-yloxy)piperidin-1-yl]-2,1,3-benzoxadiazole]	≥ 20	≥ 20	–	–	–	–
O=[N+]([O-])c1ccc(N2CCC(Sc3ccccn3)CC2)c2nonc12 [compound 288, 4-nitro-7-[4-(pyridin-2-ylthio)piperidin-1-yl]-2,1,3-benzoxadiazole]	≥ 20	≥ 20	–	–	–	–
O=[N+]([O-])c1cc(-c2cc(F)cc(F)c2)c2nonc2c1 [compound 479, 4-(3,5-difluorophenyl)-6-nitro-2,1,3-benzoxadiazole]	≥ 20	–	–	–	≥ 20	≥ 20
CC(C)(C)c1ccc(-c2cc([N+](=O)[O-])cc3nonc23)cc1 [compound 481, 4-(4-t-butylphenyl)-6-nitro-2,1,3-benzoxadiazole]	1 to 20	–	–	–	1 to 20	1 to 20
Cc1ccc(C)c(-c2cc([N+](=O)[O-])cc3nonc23)c1 [compound 484, 4-(2,5-dimethylphenyl)-6-nitro-2,1,3-benzoxadiazole]	≥ 20	–	–	–	≥ 20	≥ 20

The next lines start with the values.

IC50 (TRAF6/Uev1A/Ubc13) [µM]	IC50 (ROC1/CUL1) [µM]	IC50 (A549 cells) [µM]	IC50 (H1299 cells) [µM]	IC50 [1] [µM]	IC50 (APC11/APC2) [µM]	Compound
≥ 20	≥ 20	–	–	–	–	CCCSc1cc(NCCCOC(C)=O)c([N+](=O)[O-])c2nonc12 [compound 134, 4-{[4-nitro-7-(propylthio)-2,1,3-benzoxadiazol-5-yl]amino}propyl acetate]
≥ 20	≥ 20	–	–	–	–	CC(=O)OCCCNc1cc(SC2CCCCC2)c2nonc2c1[N+](=O)[O-] [compound 135, 3-{[7-(cyclohexylthio)-4-nitro-2,1,3-benzoxadiazol-5-yl]amino}propyl acetate]
≥ 20	≥ 20	–	–	–	–	CCOC(=O)CSc1cc(NCCCOC(C)=O)c([N+](=O)[O-])c2nonc12 [compound 137, ethyl [(6-{[3-(acetyloxy)propyl]amino}-7-nitro-2,1,3-benzoxadiazol-4-yl)thio]acetate]
1 to 20	≥ 20	≥ 20	≥ 20	–	–	Cc1cccc(N2CCN(S(=O)(=O)c3ccc(Sc4cccc5cccnc45)c4nonc34)CC2)n1 [compound 196, 8-[(7-{[4-(6-methylpyndin-2-yl)piperazin-1-yl]sulfonyl}-2,1,3-benzoxadiazol-4-yl)thio]quinoline]
1 to 20	≥ 20	–	–	–	–	O=[N+]([O-])c1ccc(Nc2ccc3cn[nH]c3c2)c2nonc12 [compound 223, N-1H-indazol-6-yl-7-nitro-2,1,3-benzoxadiazol-4-amine]
≥ 20	≥ 20	–	–	–	–	COC(=O)c1ccc(NS(=O)(=O)c2ccc(Sc3ccncc3)c3nonc23)cc1 [compound 256, methyl 4-({[7-(pyridin-4-ylthio)-2,1,3-benzoxadiazol-4-yl]sulfonyl}amino)benzoate]
≥ 20	≥ 20	–	–	–	–	CN1CCN(S(=O)(=O)c2ccc(Sc3cccc4ccccc34)c3nonc23)CC1 [compound 267, 4-[(4-methylpiperazin-1-yl)sulfonyl]-7-(1-naphthylthio)-2,1,3-benzoxadiazole]
≥ 20	≥ 20	–	–	–	–	COc1ccccc1Sc1ccc(S(=O)(=O)N2CCN(C)CC2)c2nonc12 [compound 270, 4-[(2-methoxyphenyl)thio]-7-[(4-methylpiperazin-1-yl)sulfonyl]-2,1,3-benzoxadiazole]
1 to 20	1 to 20	–	–	–	–	O=C(Nc1ccc(N2CCN(c3ncc(C(F)(F)F)cc3Cl)CC2)c2nonc12)c1cccs1 [compound 281, N-(7-{4-[3-chloro-5-(trifluoromethyl)pyridin-2-yl]piperazin-1-yl}-2,1,3-benzoxadiazol-4-yl)thiophene-2-carboxamide]
≥ 20	–	–	–	1 to 20	1 to 20	O=[N+]([O-])c1cc(-c2cccc(C(F)(F)F)c2)c2nonc2c1 [compound 480, 4-(3-[trifluoromethyl]phenyl)-6-nitro-2,1,3-benzoxadiazole]
≥ 20	–	–	–	≥ 20	≥ 20	COc1ccccc1-c1cc([N+](=O)[O-])cc2nonc12 [compound 482, 4-(2-methoxyphenyl)-6-nitro-2,1,3-benzoxadiazole]
≥ 20	–	–	–	≥ 20	≥ 20	O=[N+]([O-])c1cc(-c2cccc3cccnc23)c2nonc2c1 [compound 483, 6-nitro-4-(quinolin-8-yl)-2,1,3-benzoxadiazole]
≥ 20	≥ 20	–	–	–	–	O=S(=O)(c1ccc(Sc2ccc3ccccc3n2)c2nonc12)N1CCC(O)(c2ccc(Cl)cc2)CC1 [compound 485, 4-(4-chlorophenyl)-1-({7-(quinolin-2ylthio)-2,1,3-benzoxadiazol-4-yl}sulfonyl)piperidin-4-ol]
